Experimental data: patent publication US9421179B2, “Acamprosate formulations, methods of using the same, and combinations comprising the same” (Synchroneuron Inc., priority 2011, dated 2016)
“Also recorded” adds a separate entry of the source.

Columns and labels:
[1] = cited from earlier work
[2] = tested on: abnormal chewing movements produced in rats by haloperidol; test: Rat model of tardive dyskinesia (haloperidol-induced abnormal chewing movements); type: in vivo; settings: steadily-maintained blood level; rats exposed several weeks to haloperidol
Method: Acamprosate is tested using a rat model of tardive dyskinesia looking at abnormal chewing movements produced in rats by exposing them for several weeks to haloperidol, a potent first-generation neuroleptic. […]

[3] = tested on: Per2(Brdm1) deletion or ENT1(-/-) mice; test: Transgenic mouse models with movement disorders and hyperglutamatergic states; type: in vivo; settings: steadily-maintained blood level
[4] = tested on: tardive dyskinesia; test: Clinical cases: acamprosate treatment of tardive dyskinesia; type: in vivo, human
Method: Case 1: A person had long-standing tardive dyskinesia induced by treatment of schizoaffective disorder with a variety of neuroleptics and mood stabilizers. Their TD was characterized by side to side movements of the jaw, grimacing movements, rocking of the trunk, and continual involuntary kicking, leg-crossing, and twisting movements of their legs and feet. At the time they presented for treatment of their TD they were treated for their mental illness with lamotrigine and quetiapine, a second-generation neuroleptic.
After additional weeks free of TD symptoms they discontinued the acamprosate. Their TD symptoms returned, as did feelings of anxiety and agitation that had not been present while they were on the combination of acamprosate and perphenazine.
To test the hypothesis that the efficacy of acamprosate was related to adequate time above a threshold blood level the patient was asked to try taking 1332 mg of acamprosate once a day.
CASE 2: A person had been treated with acamprosate for several years for TD due to exposure to several neuroleptics for schizoaffective disorder. They were currently treated with lamotrigine and quetiapine for their mental illness, and was taking acamprosate 1032 mg+999 mg+1032 mg on a three times daily basis. […] To test the therapeutic threshold hypothesis the patient was asked to try 1032 mg of acamprosate once a day in the morning.

[5] = tested on: cultured rat hippocampus neurons; test: Organotypic hippocampal slice model of glutamate neurotoxicity after acamprosate pre-treatment; type: cell-based; settings: 200 μM calcium acamprosate for 8 hr or 5 days; removed for up to eight hours; challenge NMDA 50 uM or mGluR agonist
Method: The study is designed to test whether pre-treatment with acamprosate can have long-term neuronal protective effects against glutamate neurotoxicity. The study uses an in vitro organotypic hippocampal slice model. The study assesses whether less than 24 hours per day of exposure to a sufficient level of acamprosate can offer 24-hour therapeutic actions in neuropsychiatric disorders. […] This supports, among other things, the therapeutic use of acamprosate in neuropsychiatric disorders because the latter are related to the effect of acamprosate to decrease glutamate effects at NMDA and metabotropic glutamate receptors.
Hippocampal slices derived from 8-day-old Sprague Dawley rats are plated and subsequently exposed to a relatively acute (8 hour) or more chronic (5 day) acamprosate treatment. […] The slices are then placed in normal medium with propidium iodide for 24 hr and assessed for neurotoxicity/neuroprotection as described below. […]
For the final medium change, the plates are moved into normal media containing propidium iodide (PI) added to each well for 24 hours. PI only penetrates cell membranes of damaged or potentially dying cells, binding to DNA to produce a bright, intensified red fluorescence at 630 nm. […] Fluorescence is recorded in arbitrary units, then converted to percent of control, facilitating comparison across multiple cultures and controlling for variation between litters.

[6] = cited from earlier work; remark: listed apart in the source
[7] = Gastric retention time of swellable acamprosate tablet in dog model (fed mode induction with alpha-lipoic acid); type: in vivo; settings: retention of 800 mg swellable tablet; After 125 mg alpha-lipoic acid given 15 minutes before; four beagle dogs

Average gastric retention time [7] [h] | Maximum gastric retention time [7] [h] | Minimum gastric retention time [7] [h] | Structure (SMILES) | decrease of bioavailability by food [1] | abnormal chewing movements [2] | abnormal movements [3] | relief of TD symptoms ([4]; Case 1, 666 mg three times a day) | relief of TD symptoms ([4]; Case 1, 999 mg three times a day) | anxiety and agitation ([4]; Case 1, 999 mg three times a day, with perphenazine) | relief of TD symptoms ([4]; Case 1, 1332 mg once a day) | side effects ([4]; Case 1, 1332 mg once a day) | relief of involuntary movements of TD ([4]; Case 2, 999 mg three times a day) | relief of involuntary movements of TD ([4]; Case 2, 1032 mg in the morning plus second dose of 1032 mg 8 to 10 hours later) | relief of involuntary movements of TD ([4]; Case 2, 1032 mg once a day in the morning) | relief of involuntary movements of TD ([4]; Case 2, 1032 mg+999 mg+1032 mg three times daily) | anxiety and agitation ([4]; Case 2, when involuntary movements were relieved, with lamotrigine and quetiapine) | effect on post-synaptic effects of glutamate agonists after removal of acamprosate from the culture medium [5] | solubility [6] | solubility in gastric juice ([6]; gastric juice)
 |  |  | CC(=O)NCCCS(=O)(=O)O [acamprosate, calcium N-acetylhomotaurinate] | approximately 30% | reduce or eliminate the abnormal movements | reduce or eliminate the abnormal movements | partial relief of symptoms; also recorded: did not give their complete relief | complete relief of their TD | relief of anxiety and agitation | free of involuntary movements of TD | significant GI side effects of diarrhea and abdominal cramps | did not give full relief from their involuntary movements | complete relief of symptoms | free of movements in the morning and early afternoon but movements returned in the evening | completely relieved their involuntary movements of TD | less anxiety and agitation | persistent effect | high solubility | immediately and completely soluble in gastric juice
2.8 | 5 | 1.5 | O=C(O)CCCCC1CCSS1 (stereo not drawn) [alpha-lipoic acid] |  |  |  |  |  |  |  |  |  |  |  |  |  |  |  | 
